This passage reports GI50 and TGI results from PubChem BioAssay (NCI).

“And” between values parts separate entries of the source, which are not always exact repeats. Identical values can stand only once.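 Where inhibition never reached the appropriate level, the endpoint shown equals the highest concentration tested. Otherwise, values were interpolated linearly from a five-concentration, 48-hour dose response in 96-well plates. At the GI50, growth is halved. At the TGI there is no net growth.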

What all share (assay): DTP human tumour cell line panel, 48 h
The test system of test [1] is SK-MEL-2 melanoma.
Test [2] relates to SK-MEL-28 melanoma.
Test [3] relates to UACC-257 melanoma.
The subject of test [4] is LOX IMVI melanoma.
In test [5] the test system is CAKI-1 renal.
The test system of test [6] is HCT-15 colon.
In test [7] the test system is A498 renal.
In test [8] the test system is SNB-19 CNS.
Test [9] deals with SW-620 colon.
Test [10] has as its system NCI-H460 lung.

The GI50 is the concentration giving 50% growth inhibition. For orientation: TGI means the concentration at which net growth stops. Take `COc1cc(Oc2cnc3cc(N)cc(N)c3n2)cc(OC)c1OC`: the GI50 was more than 100 µM in [1]; 36.6 µM in test [2]; more than 100 µM in test [3]; 33.4 µM in test [4]; 38.2 µM in test [5]; 50 µM in [6]. Besides, the GI50 in [7] is 65.1 µM; in test [8], more than 100 µM; in test [9] it was 44.3 µM; in test [10], 52 µM. Moreover, the concentration for total growth inhibition (TGI) in test [1], in [2], in [3], in test [4], in test [5] and in test [6] was more than 100 µM in each case. The concentration for total growth inhibition (TGI) in test [7], in [8], in test [9] and in test [10] was more than 100 µM each time.

As for `COc1ccc(-c2cc(-c3ccco3)c(C#N)c(=O)n2C2OC(OC(=O)c3ccccc3)C(OC(=O)c3ccccc3)C2OC(=O)c2ccccc2)cc1` (stereo unspecified), the total growth inhibition concentration (TGI) in test [1], in test [2], in [3], in [4], in [5] and in test [6] was more than 100 µM throughout. For the same molecule, the TGI in [7], in [8], in test [9] and in test [10] was more than 100 µM throughout.

On to `COc1ccc(C2CC(c3cccc(Nc4ccnc5cc(Cl)ccc45)c3)=NN2c2ccccc2)cc1` (stereo unspecified), for which the GI50 in test [1] was 2.07 µM; in [2] it was 4.41 µM; in test [3], 1.36 µM; in test [4], 0.338 µM; in test [5] it was 0.681 µM; in test [6], 0.335 µM. The GI50 in test [7] was 2.87 µM; in test [8] it was 6.9 µM; in test [9], 0.277 µM; in test [10] it was 0.418 µM. Besides, the TGI in test [1] was 10.4 µM; in test [2], 32.5 µM; in test [3], 31.4 µM; in test [4], 11.1 µM; in test [5] it was more than 100 µM; in [6], 14.7 µM. Moreover, the TGI in test [7] was 81.2 µM; in test [8], more than 100 µM; in test [9], 14.4 µM; in test [10], 12.2 µM.

As to `NNC(=S)N/N=C(\c1nc2ccc(Cl)cc2[nH]c1=O)C(O)c1ccc(Cl)cc1Cl` (stereo unspecified), the TGI in test [1], in test [2], in test [3], in [4], in [5] and in test [6] was more than 100 µM throughout. Moreover, the TGI in test [7], in test [8], in test [9] and in test [10] was more than 100 µM in each case.

Consider `O=C(O)/C=C/C(=O)Nc1cccc2c1-c1ccccc1C2=O`, for which the concentration for total growth inhibition (TGI) in [1] is 32.9 µM; in test [2], more than 100 µM; in [3], more than 100 µM; in [4], more than 100 µM; in [5] it was more than 100 µM; in [6], more than 100 µM. The TGI is more than 100 µM in test [7], more than 100 µM in test [8], more than 100 µM in test [9] and more than 35.5 µM in [10].

As to `O=C(O)C(=O)/C=C\c1ccc(Cl)cc1`, the TGI in test [1], in test [2], in test [3], in test [4], in test [5] and in test [6] was more than 100 µM throughout. Further, the TGI in test [7] is more than 100 µM; in test [8] it was more than 100 µM; in test [9], 27 µM; in test [10] it was more than 100 µM.

As to `O=C(NCCc1ccccc1)C(c1csc2ccccc12)N(C(=O)CCl)c1ccc(-c2cnco2)cc1` (stereo unspecified), the GI50 in test [1] is 1.64 µM; in test [2] it was 1.69 µM; in test [3] it was 1.63 µM; in test [4], less than 0.01 µM; in test [5], 0.096 µM; in test [6] it was 0.596 µM. Moreover, the GI50 in [7] was 0.62 µM; in [8], 1.7 µM; in test [9] it was 0.391 µM; in [10] it was 0.631 µM. Also, the TGI in [1] amounted to 3.12 µM; in [2], 3.12 µM; in test [3], 3.17 µM; in test [5], 0.487 µM; in [6], 1.84 µM; in [7], 1.48 µM. The values for the TGI in test [8] and in test [9] were 3.16 µM and 1.29 µM, respectively.

With `NC(N)=Nc1nc2cc(N)ccc2o1`, the TGI in [1], in test [2], in test [3], in [4], in [5] and in test [6] was more than 100 µM each time. Besides, the TGI in test [7], in test [8], in [9] and in [10] was more than 100 µM throughout.

Turning to `c1cc(C2O[C@H]3CCCN3[C@@H]2c2ccncc2)ccn1` (stereo partly specified), the TGI in [1], in [2], in test [3], in test [4], in test [5] and in test [6] was more than 100 µM each time. For the same molecule, the TGI in [7], in [8], in [9] and in test [10] was more than 100 µM throughout.

On to `Cc1cc(C)cc(NC(=O)CCC(=O)C2CCC/C2=N\NC(=O)C(=O)NN)c1` (stereo unspecified), for which the TGI in test [1], in test [2], in [3], in test [4], in test [5] and in test [6] was more than 100 µM throughout. For the same molecule, the total growth inhibition concentration (TGI) in [7], in test [8], in test [9] and in test [10] was more than 100 µM in each case.

As for `Clc1cc(Cl)c2n[se]nc2c1`, the TGI in test [1], in test [2], in test [3], in test [4], in [5] and in test [6] was more than 100 µM in each case. Moreover, the total growth inhibition concentration (TGI) in test [7], in test [8], in test [9] and in [10] was more than 100 µM in each case.

`O=c1cc(N2CCOCC2)oc2c(-c3ccccc3)cccc12`: the GI50 in [1] is 12.1 µM; in test [2] it was 6.57 µM; in test [3] it was 9.06 µM; in test [4], 4.34 µM; in test [6], 4.98 µM; in [7] it was 1.53 µM. In addition, the figures for the GI50 in test [9] and in [10] were 15.5 µM and 6.13 µM, respectively. The TGI was 38 µM and 36.9 µM in test [1]; more than 100 µM in test [2]; 69.2 µM and 60.8 µM in [3]; > 68.3 µM and 18.4 µM in test [4]; 28.9 µM and 9.16 µM in [5]; > 100 µM and 48.7 µM in test [6]. In addition, the total growth inhibition concentration (TGI) in test [7] is 7.54 µM and 13.9 µM; in [8], > 96.2 µM and 78.6 µM; in test [9] it was more than 100 µM; in [10], more than 100 µM.

For the molecule `COc1cc(OC)cc(-c2n[nH]nc2-c2ccc3c(c2)OCO3)c1`, the GI50 in [1] was 0.245 µM; in test [2], 4.44 µM; in [3], 18.2 µM; in [4], 0.545 µM; in [5], 0.316 µM; in test [6], 0.125 µM. Further, the GI50 is 0.343 µM in test [7], 0.501 µM in [8], 0.105 µM in [9] and 0.335 µM in test [10]. Moreover, the TGI in [1] is 55.7 µM; in test [2] it was 43.5 µM; in test [3], 70.4 µM; in [4], 87.1 µM; in test [5], more than 100 µM; in [6], more than 100 µM. For the same molecule, the concentration for total growth inhibition (TGI) was 9.32 µM in [7], more than 100 µM in test [8], more than 100 µM in [9] and 28.7 µM in test [10].

`CC(=N\O)/C(C)=N/O.CC(=N\O)/C(C)=N/O.[Pd]`: the GI50 in test [1] is 3.31 µM; in test [2], 3.87 µM; in [3] it was 3.15 µM; in test [4], 1.58 µM; in test [5] it was more than 10 µM; in test [6], 2.44 µM. The GI50 in test [7] is 4.9 µM; in [8] it was more than 10 µM; in [9], 3.44 µM; in [10], 9.28 µM. For the same molecule, the TGI in test [1] is 8.67 µM; in [2], 9.48 µM; in [3] it was more than 10 µM; in test [4], 3.16 µM; in test [5], more than 10 µM; in test [6], 7.08 µM. The TGI in test [7], in test [8], in test [9] and in [10] was more than 10 µM in each case.

As for `O=C(O)CSc1ccn(Cc2ccccc2)c1`, the TGI in [1], in [2], in [3], in [4], in test [5] and in test [6] was more than 100 µM in each case. Moreover, the TGI in [7], in test [8], in [9] and in test [10] was more than 100 µM each time.

Consider `O=c1c2ccccc2oc2nccnc12`, for which the TGI in test [1], in [2], in test [3], in test [4], in test [5] and in [6] was more than 100 µM throughout. Also, the TGI in [7], in [8], in test [9] and in test [10] was more than 100 µM throughout.

For `COc1ccc2c(c1)Cc1cc(N=[N+]([O-])c3ccc4c(c3)Cc3cc(OC)ccc3-4)ccc1-2`, the TGI in test [1] was more than 100 µM; in test [2], more than 100 µM; in [3] it was 52.7 µM; in test [4], 97.7 µM; in test [5], more than 100 µM; in [6] it was more than 100 µM. The TGI in test [7] was 95 µM; in test [8] it was more than 100 µM; in [9], more than 100 µM; in [10] it was more than 100 µM.

Take `CCSc1sc(-c2ccc(C)cc2)nc1[P+](c1ccccc1)(c1ccccc1)c1ccccc1`: the GI50 was 0.273 µM in [1]; 0.532 µM in test [2]; 0.294 µM in test [3]; 0.267 µM in test [4]; 0.488 µM in [5]; 0.315 µM in test [6]. Also, the GI50 is 0.161 µM in test [7], 0.332 µM in test [8], 0.332 µM in test [9] and 0.306 µM in test [10]. Moreover, the total growth inhibition concentration (TGI) came out at 0.805 µM in [1]; 1.82 µM in [2]; 1.05 µM in [3]; 0.913 µM in [4]; 1.35 µM in [5]; 1.18 µM in [6]. In addition, the TGI in test [7] turned out to be 0.597 µM; in test [8], 1.39 µM; in test [9], 1.34 µM; in [10] it was 1.12 µM.

On to `CC1=NN(C(=O)CC(=O)Nc2ccccc2)C(=O)C1N=Nc1ccc(S(N)(=O)=O)cc1` (stereo unspecified), for which the concentration for total growth inhibition (TGI) in test [1], in test [2], in test [3], in test [4], in test [5] and in test [6] was more than 100 µM each time. Besides, the TGI in [7], in test [8], in test [9] and in test [10] was more than 100 µM throughout.

On to `COc1ccc(/C=N\N2C(=O)Cc3ccccc32)cc1`, for which the TGI in test [1], in test [2], in test [3], in test [4], in [5] and in test [6] was more than 100 µM throughout. Further, the TGI in [7], in test [8], in test [9] and in test [10] was more than 100 µM throughout.

For the molecule `CCCCCc1c(C)[nH]c(/C=C2\N=C(c3ccc[nH]3)C=C2Oc2ccc(OC)cc2)c1C`, the GI50 is 0.116 µM and 0.0299 µM in test [1]; 0.231 µM and 0.0512 µM in [2]; 0.125 µM in test [3]; 0.0406 µM and 0.0197 µM in [4]; 0.136 µM and 0.0363 µM in [5]; 0.113 µM in [6]. Besides, the GI50 in test [7] is 0.194 µM and 0.0304 µM; in test [8], 0.44 µM and 0.098 µM; in test [9], 0.0587 µM and 0.0252 µM; in [10], 0.085 µM and 0.038 µM. The TGI was 0.302 µM and 0.0836 µM in test [1]; 0.904 µM and 0.281 µM in test [2]; 0.998 µM in test [3]; 0.289 µM and 0.0534 µM in test [4]; 0.449 µM and 0.333 µM in [5]; 0.759 µM in [6]. Besides, the TGI in test [7] is 1.19 µM and 0.234 µM; in test [8], 1.99 µM; in test [9], 1.53 µM and 0.518 µM; in [10], 1.17 µM.
